In patent US9604983B2, “Herbicidal 3-(2-benzyloxyphenyl)-2,4-dihydroxy-1,8-naphthyridine derivatives” (SYNGENTA LIMITED, priority 2013, dated 2017):

Key:
Experiment in all cases: Post-emergence efficacy, glasshouse pot test
Type in all cases: in vivo
Settings in all cases: post-emergence application at 1000 g/ha; evaluated after 13 days; five point scale
[1] = test system: Alopecurus myosuroides (ALOMY)
Experimental: (§1) B1 Post-emergence Efficacy Seeds of a variety of test species are sown in standard soil in pots:—Solanum nigrum (SOLNI), Amaranthus retoflexus (AMARE), Setaria faberi (SETFA), Alopecurus myosuroides (ALOMY), Echinochloa crus-galli (ECHCG), Ipomoea hederacea (IPOHE). After 8 days cultivation (post-emergence) under controlled conditions in a glasshouse (at 24/16° C., day/night; 14 hours light; 65% humidity), the plants are sprayed with an aqueous spray solution derived from the formulation of the technical active ingredient in acetone/water (50:50) solution containing 0.5% Tween 20 (polyoxyethelyene sorbitan monolaurate, CAS RN 9005-64-5). Compounds are applied at 1000 g/ha. The test plants are then grown in a glasshouse under controlled conditions in a glasshouse (at 24/16° C., day/night; 14 hours light; 65% humidity) and watered twice daily. After 13 days, the test is evaluated for the percentage damage caused to the plant. The biological activities are shown below in Table 13, on a five point scale (5=80-100%; 4=60-79%; 3=40-59%; 2=20-39%; 1=0-19%).

Solanum nigrum (SOLNI) = test system: Solanum nigrum (SOLNI)
Experimental: as §1

[2] = test system: Ipomoea hederacea (IPOHE)
Experimental: as §1

[3] = test system: Amaranthus retoflexus (AMARE)
Experimental: as §1

[4] = test system: Echinochloa crus-galli (ECHCG)
Experimental: as §1

Setaria faberi (SETFA) = test system: Setaria faberi (SETFA)
Experimental: as §1

SMILES | percentage damage caused to the plant, ALOMY [1] | percentage damage caused to the plant, SOLNI (Solanum nigrum (SOLNI)) | percentage damage caused to the plant, IPOHE [2] | percentage damage caused to the plant, AMARE [3] | percentage damage caused to the plant, ECHCG [4] | percentage damage caused to the plant, SETFA (Setaria faberi (SETFA))
O=c1c(-c2cccc(Cl)c2OCc2ccccc2)c(O)c2cccnc2n1CC(F)F [Compound 12.001] | 1 (1=0-19%) | 5 (5=80-100%) | 5 (5=80-100%) | 5 (5=80-100%) | 1 (1=0-19%) | 1 (1=0-19%)
O=c1c(-c2cccc(Cl)c2OCc2ccccc2)c(O)c2nccnc2n1CC(F)F [Compound 12.003] | 2 (2=20-39%) | 5 (5=80-100%) | 5 (5=80-100%) | 5 (5=80-100%) | 5 (5=80-100%) | 5 (5=80-100%)
